Results from the supplement of paper PMC10307832.

Assays:
Assay in all cases: relative viability (nuclei count vs DMSO), 5 days (fraction); higher = more cells survive
[1] = test system: HOP-62
Outline: (§1)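 Lung cancer cell lines in 1536-well plates were dosed by pin tool the day after seeding, either with one drug alone or with a fixed anchor-drug dose plus five library-drug doses (not always all listed) in √10 steps. After 5 days, cells were fixed and their nuclei stained in one step (final 0.05% Triton X-100, 1% formaldehyde, 1 ug/ml Hoechst), then counted on 4× images. Relative viability is the nuclei count in treated wells divided by that in vehicle wells. Values are medians of duplicate plates.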

[2] = test system: LU99A
Outline: as §1

[3] = test system: UMC-11
Outline: as §1

[4] = test system: NCI-H522
Outline: as §1

[5] = test system: NCI-H1650
Outline: as §1

[6] = test system: NCI-H3122
Outline: as §1

[7] = test system: NCI-H1355
Outline: as §1

[8] = test system: LXF-289
Outline: as §1

[9] = test system: SK-LU-1
Outline: as §1

[10] = test system: NCI-H1993
Outline: as §1

[11] = test system: NCI-H2170
Outline: as §1

[12] = test system: EPLC-272H
Outline: as §1

[13] = test system: PC-3 [JPC-3]
Outline: as §1

[14] = test system: NCI-H2405
Outline: as §1

[15] = test system: HCC-827
Outline: as §1

[16] = test system: LCLC-97TM1
Outline: as §1

[17] = test system: LK-2
Outline: as §1

[18] = test system: H3255
Outline: as §1

[19] = test system: ChaGo-K-1
Outline: as §1

[20] = test system: NCI-H2228
Outline: as §1

[21] = test system: NCI-H441
Outline: as §1

[22] = test system: EKVX
Outline: as §1

[23] = test system: SW 1573
Outline: as §1

With `Cc1csc(=NC2CCCCC2)n1/N=C/c1ccc(O)c(O)c1O` [MIM1] + Cc1cc(Nc2cc(N3CCN(C)CC3)nc(Sc3ccc(NC(=O)C4CC4)cc3)n2)n[nH]1 [Tozasertib] (partner 0.1 µM) the relative viability ([1]; first compound 0.2 µM) was 0.38, the relative viability ([1]; first compound 0.6325 µM) was 0.378 and the relative viability ([1]; first compound 2 µM) was 0.298. The relative viability ([1]; first compound 6.325 µM) was 0.335, the relative viability ([1]; first compound 20 µM) was 0.184 and the relative viability ([2]; first compound 0.2 µM) was 0.286. The relative viability ([2]; first compound 0.6325 µM) was 0.274, the relative viability ([2]; first compound 2 µM) was 0.288 and the relative viability ([2]; first compound 6.325 µM) was 0.219. The relative viability ([2]; first compound 20 µM) was 0.177, the relative viability ([3]; first compound 0.2 µM) was 0.197 and the relative viability ([3]; first compound 2 µM) was 0.196. The relative viability ([3]; first compound 6.325 µM) was 0.207, the relative viability ([3]; first compound 20 µM) was 0.187 and the relative viability ([4]; first compound 0.2 µM) was 0.622. For the same molecule, the relative viability ([4]; first compound 0.6325 µM) was 0.572, the relative viability ([4]; first compound 2 µM) was 0.484 and the relative viability ([4]; first compound 6.325 µM) was 0.608. It also gave a relative viability ([4]; first compound 20 µM) of 0.452, a relative viability ([5]; first compound 0.2 µM) of 0.529 and a relative viability ([5]; first compound 0.6325 µM) of 0.411. The relative viability ([5]; first compound 2 µM) was 0.282, the relative viability ([5]; first compound 6.325 µM) was 0.322 and the relative viability ([5]; first compound 20 µM) was 0.133. For the same molecule, the relative viability ([6]; first compound 0.2 µM) was 0.446, the relative viability ([6]; first compound 0.6325 µM) was 0.464 and the relative viability ([6]; first compound 2 µM) was 0.366. The relative viability ([6]; first compound 6.325 µM) was 0.155, the relative viability ([6]; first compound 20 µM) was 0.0965 and the relative viability ([7]; first compound 0.2 µM) was 0.588. It also gave a relative viability ([7]; first compound 0.6325 µM) of 0.557, a relative viability ([7]; first compound 2 µM) of 0.519 and a relative viability ([7]; first compound 6.325 µM) of 0.464. The relative viability ([7]; first compound 20 µM) was 0.3, the relative viability ([8]; first compound 0.2 µM) was 0.167 and the relative viability ([8]; first compound 0.6325 µM) was 0.217. It also gave a relative viability ([8]; first compound 2 µM) of 0.198, a relative viability ([8]; first compound 6.325 µM) of 0.181 and a relative viability ([8]; first compound 20 µM) of 0.117. It also gave a relative viability ([9]; first compound 0.2 µM) of 0.329, a relative viability ([9]; first compound 0.6325 µM) of 0.374 and a relative viability ([9]; first compound 2 µM) of 0.393. For the same molecule, the relative viability ([9]; first compound 6.325 µM) was 0.273, the relative viability ([9]; first compound 20 µM) was 0.283 and the relative viability ([10]; first compound 0.2 µM) was 0.57. It also gave a relative viability ([10]; first compound 0.6325 µM) of 0.538, a relative viability ([10]; first compound 2 µM) of 0.539 and a relative viability ([10]; first compound 6.325 µM) of 0.518. It also gave a relative viability ([10]; first compound 20 µM) of 0.433, a relative viability ([11]; first compound 0.2 µM) of 0.706 and a relative viability ([11]; first compound 0.6325 µM) of 0.721. It also gave a relative viability ([11]; first compound 2 µM) of 0.62, a relative viability ([11]; first compound 6.325 µM) of 0.478 and a relative viability ([11]; first compound 20 µM) of 0.206. For the same molecule, the relative viability ([12]; first compound 0.2 µM) was 0.425, the relative viability ([12]; first compound 0.6325 µM) was 0.226 and the relative viability ([12]; first compound 2 µM) was 0.219. For the same molecule, the relative viability ([12]; first compound 6.325 µM) was 0.372, the relative viability ([12]; first compound 20 µM) was 0.124 and the relative viability ([13]; first compound 0.2 µM) was 0.912. The relative viability ([13]; first compound 0.6325 µM) was 0.86, the relative viability ([13]; first compound 2 µM) was 0.849 and the relative viability ([13]; first compound 6.325 µM) was 0.694. The relative viability ([13]; first compound 20 µM) was 0.574, the relative viability ([14]; first compound 0.2 µM) was 0.767 and the relative viability ([14]; first compound 0.6325 µM) was 0.721. The relative viability ([14]; first compound 2 µM) was 0.682, the relative viability ([14]; first compound 6.325 µM) was 0.549 and the relative viability ([14]; first compound 20 µM) was 0.537. It also gave a relative viability ([15]; first compound 0.2 µM) of 0.43, a relative viability ([15]; first compound 0.6325 µM) of 0.404 and a relative viability ([15]; first compound 2 µM) of 0.411. It also gave a relative viability ([15]; first compound 6.325 µM) of 0.169, a relative viability ([15]; first compound 20 µM) of 0.177 and a relative viability ([16]; first compound 0.2 µM) of 0.285. The relative viability ([16]; first compound 0.6325 µM) was 0.237, the relative viability ([16]; first compound 2 µM) was 0.292 and the relative viability ([16]; first compound 6.325 µM) was 0.192. It also gave a relative viability ([16]; first compound 20 µM) of 0.109, a relative viability ([17]; first compound 0.2 µM) of 0.186 and a relative viability ([17]; first compound 2 µM) of 0.161. For the same molecule, the relative viability ([17]; first compound 6.325 µM) was 0.166, the relative viability ([17]; first compound 20 µM) was 0.142 and the relative viability ([18]; first compound 0.2 µM) was 0.526. The relative viability ([18]; first compound 0.6325 µM) was 0.54, the relative viability ([18]; first compound 2 µM) was 0.601 and the relative viability ([18]; first compound 6.325 µM) was 0.537. The relative viability ([18]; first compound 20 µM) was 0.277, the relative viability ([19]; first compound 0.2 µM) was 0.246 and the relative viability ([19]; first compound 0.6325 µM) was 0.232. It also gave a relative viability ([19]; first compound 2 µM) of 0.204, a relative viability ([19]; first compound 6.325 µM) of 0.196 and a relative viability ([19]; first compound 20 µM) of 0.155. It also gave a relative viability ([20]; first compound 0.2 µM) of 0.257, a relative viability ([20]; first compound 0.6325 µM) of 0.284 and a relative viability ([20]; first compound 2 µM) of 0.234. It also gave a relative viability ([20]; first compound 6.325 µM) of 0.203, a relative viability ([20]; first compound 20 µM) of 0.123 and a relative viability ([21]; first compound 0.2 µM) of 0.675. The relative viability ([21]; first compound 2 µM) was 0.599, the relative viability ([21]; first compound 6.325 µM) was 0.376 and the relative viability ([21]; first compound 20 µM) was 0.312. The relative viability ([22]; first compound 0.2 µM) was 0.474, the relative viability ([22]; first compound 0.6325 µM) was 0.357 and the relative viability ([22]; first compound 2 µM) was 0.355. It also gave a relative viability ([22]; first compound 6.325 µM) of 0.28, a relative viability ([22]; first compound 20 µM) of 0.337 and a relative viability ([23]; first compound 0.2 µM) of 0.21. It also gave a relative viability ([23]; first compound 0.6325 µM) of 0.197, a relative viability ([23]; first compound 2 µM) of 0.257 and a relative viability ([23]; first compound 6.325 µM) of 0.127. The relative viability ([23]; first compound 20 µM) was 0.128.
